Like-named read-outs stand apart in the source and are kept apart here.
Columns and labels:
[1] = system: HCV replicon; experiment: Anti-HCV replicon assay, EC50 (luciferase luminescence); assay type: cell-based; details: Hepatitis C virus
Method: (§1) The anti-HCV activity of certain pyrido[3,2-d]pyrimidine derivatives of this invention was tested in a human hepatoma Huh-7 cell line harbouring a HCV replicon. The assay comprised the following steps:
(§2) Step 1: Compound Preparation and Serial Dilution
(§3) • 1. for water soluble pyrido[3,2-d]pyrimidine derivatives, a volume of 500 μL of solution in cell media (DMEM, 10% FBS, P/S, L-Glutamine) was prepared with a concentration being twice the concentration of the starting final serial dilution concentration. A volume of 150 μL of the solution was added to the pre-specified wells in column 1 of a 96-well cell culture plate (PerkinElmer, white plate, cat. #6005181, for EC50 assay; black plate, cat. #6005182 for CC50 assay). The rest of the plate, columns 2-12, was filled with 100 μL of cell media. The plate was then placed on a Precision 2000 Workstation to start the serial dilution. Compounds were diluted three times each step from column 1 to column 10. Column 11 was used as a blank control (no compound added). • 2. for pyrido[3,2-d]pyrimidine derivatives requiring DMSO to dissolve, serial dilution is performed in 50% DMSO in a 384-well plate. A solution containing a compound at 100-fold concentration of the starting final serial dilution concentration was prepared in 50% DMSO and added to the pre-specified wells in column 1 of a polypropylene 384-well plate. The plate was then placed on a Precision 2000 Workstation to start the serial dilution. After the serial dilution, a volume of 2 μL of the solution was transferred from the 384-well plate to a 96-well cell culture plate containing 100 μL of cell media on a Biomek FX Workstation. The DMSO concentration in the final assay condition was 0.5% after cells are added to the plate and the total volume in each well is brought to 200 μL. Step 2: to each well of the serial dilution plate prepared above, 100 μL of cell media containing 6000 suspended Huh-7 HCV replicon cells was added with a Multidrop workstation. The plates were incubated for 3 days at 37° C. with 5% CO2. Step 3: Detection: • a) for the EC50 assay, the media in a 96-well cell culture plate was aspirated with a Biotek EL405 plate-washer. A volume of 200 μL of a solution containing a 1:1 mixture of cell-lysis buffer (Promega, Luciferase Cell Culture Lysis 5× Reagent, cat. #E1531) and luciferase substrate solution (Promega, Luciferase Assay, cat. # E4550) was added to each well of the plate with Multidrop. The plate was incubated for 30 minutes at room temperature before the luminescence signal was measured with a TopCount plate-reader. • b) for the CC50 assay, a volume of 100 μL of pre-mixed CellTiter-Glo (Promega, cat. # G7572) solution is added directly to the cell culture in each well of the plate and the luminescence signal is measured with a TopCount plate-reader after 10 minutes of incubation at room temperature.
(§4) Results in the table below are expressed by the following data: • the 50% cytostatic concentration (CC50). i.e. the concentration that results in 50% inhibition of cell growth, and • the 50% effective concentration (EC50), i.e. the concentration that protects 50% of the cell monolayer from virus-induced cythopathic effect.

[2] = CC50 assay (CellTiter-Glo) in the replicon cells; assay type: cell-based; details: human, Huh-7 HCV replicon cells, 3 days incubation, 50% inhibition of cell growth
Method: as §1, §2, §3, §4

[3] = 72 h, human hepatoma Huh-7 cell line harbouring a HCV replicon, 3 days incubation, luciferase readout, read-out: EC50

Row | Compound | EC50 [1, 3] [nM] | CC50 at 3 days [2] [µM] | EC50 ([1]; Huh-7, 72 h) [nM]
1 | CCCc1nc(N)nc2ccc(-c3ccc(F)cc3)nc12 [Example 2, 6-(4-fluorophenyl)-4-n-propyl-pyrido[3,2-d]pyrimidin-2-yl-amine] | < 300 | > 20 | 
2 | CCCc1nc(N)nc2ccc(-c3ccc(NC(C)=O)cc3)nc12 [Example 3, N-[4-(2-amino-4-n-propyl-pyrido[3,2-d]pyrimidin-6-yl)-phenyl]-acetamide] | 300 to 1000 | > 20 | 
3 | CCc1nc(N)nc2ccc(-c3ccc(F)cc3)nc12 [Example 5, 4-ethyl-6-(4-fluoro-phenyl)-pyrido[3,2-d]pyrimidin-2-ylamine] | < 300 | < 10 | 
4 | CC(C)Cc1nc(N)nc2ccc(-c3ccc(F)cc3)nc12 [Example 6, 6-(4-fluorophenyl)-4-isobutyl-pyrido[3,2-d]pyrimidin-2-ylamine] | < 300 | > 20 | 
5 | C=CCCc1nc(N)nc2ccc(-c3ccc(F)cc3)nc12 [Example 7, 4-but-3-enyl-6-(4-fluorophenyl)-pyrido[3,2-d]pyrimidin-2-ylamine] |  | > 20 | < 300
6 | CCc1nc(N)nc2ccc(-c3ccc(N4CCCC4=O)cc3)nc12 [Example 8, 1-[4-(2-amino-4-ethyl-pyrido[3,2-d]pyrimidin-6-yl)-phenyl]-pyrrolidin-2-one] | < 300 | > 20 | 
7 | CCc1nc(N)nc2ccc(-c3cnc(N)cn3)nc12 [Example 9, 6-(5-Amino-pyrazin-2-yl)-4-ethyl-pyrido[3,2-d]pyrimidin-2-ylamine] | 300 to 1000 | < 10 | 
8 | Nc1nc(CCC2OCCCO2)c2nc(-c3ccc(F)cc3)ccc2n1 [Example 10, 4-(2-[1,3]dioxan-2-yl-ethyl)-6-(4-fluoro-phenyl)-pyrido[3,2-d]pyrimidin-2-ylamine] |  | > 20 | 300 to 1000
9 | Cc1nc(N)nc2ccc(-c3ccc(F)cc3)nc12 [Example 11, 4-methyl-6-(4-fluorophenyl)-pyrido[3,2-d]pyrimidin-2-ylamine] | < 300 | < 10 | 
10 | CC(C)c1nc(N)nc2ccc(-c3ccc(F)cc3)nc12 [Example 12, 6-(4-fluorophenyl)-4-isopropyl-pyrido[3,2-d]pyrimidin-2-ylamine] | < 300 | > 20 | 
11 | Nc1nc(C2CC2)c2nc(-c3ccc(F)cc3)ccc2n1 [Example 13, 4-Cyclopropyl-6-(4-fluoro-phenyl)-pyrido[3,2-d]pyrimidin-2-ylamine] | < 300 | 10 to 20 | 
12 | Nc1nc(C2CC2)c2nc(-c3ccc(N4CCCC4=O)cc3)ccc2n1 [Example 14, 1-[4-(2-amino-4-cyclopropyl-pyrido[3,2-d]pyrimidin-6-yl)-phenyl]-pyrrolidin-2-one] | < 300 | 10 to 20 | 

— US8338435B2, “Substituted pyrido(3,2-D) pyrimidines and pharmaceutical compositions for treating viral infections” (Gilead Sciences, Inc., priority 2006, dated 2012)
